From ChEMBL document CHEMBL3507680, “University of Dundee, Gates Library screen for HepG2 cell viability”

Test: Human HepG2 cell viability assay in 384 well format
Format: toxicity, cell-based
Parameters: dose 125 nL, time 70.5 hour; concentration not given beside the values
Details: HepG2 cells, read-out: Inhibition
In the case of `COc1cc(CNc2nc(C3CC3)no2)cc(OC)c1OC`, the cytotoxicity at 70.5 h was 6.45%.
`CCc1noc(CN2CCN(C(=O)Cc3ccc(F)cc3)CC2)n1` showed a cytotoxicity at 70.5 h of -5.71%.
Compound `Cn1c(CS(=O)(=O)Cc2cccc(Cl)c2)cc(=O)n(C)c1=O` has a cytotoxicity at 70.5 h of -4.54%.
With `COc1cc(CO)ccc1OCc1nc(C2CC2)no1` the cytotoxicity at 70.5 h was -7.52%.
Compound `Cc1noc(C2CCCN(C(=O)c3cc(Cl)c(Cl)n3C)C2)n1` (stereo not drawn) has a cytotoxicity at 70.5 h of -6.05%.
Compound `CCn1cnnc1CNC(=O)NCC(O)c1ccc(OC)cc1` (stereo not drawn) has a cytotoxicity at 70.5 h of -4.35%.
Work on `Cc1noc(C2CCCN(C(=O)c3scnc3Cl)C2)n1` (stereo not drawn) yielded a cytotoxicity at 70.5 h of 13%.
Work on `O=C(CCCc1nc2ccccc2[nH]1)N1CCCC1c1ccccn1` (stereo not drawn) yielded a cytotoxicity at 70.5 h of 0.793%.
`O=C(Cc1cccc(O)c1)NCCNc1nccc(C(F)(F)F)n1` gave a cytotoxicity at 70.5 h of -7.29%.
With `Cc1nc(CC(=O)NCCNc2nccc(C(F)(F)F)n2)cs1` the cytotoxicity at 70.5 h was -6.39%.
`CC(C)(C)n1cc(C#N)cc1NC(=O)CCNC(=O)c1ccco1` showed a cytotoxicity at 70.5 h of 11.3%.
With `CC(C)COc1cncc(NCCc2nnc3ccccn23)n1` the cytotoxicity at 70.5 h was -4.15%.
In the case of `CN(C)c1ncc(NC(=O)c2cccc(Nc3cnn(C)c3)c2)cn1`, the cytotoxicity at 70.5 h was 2.52%.
In the case of `COc1cccc(C(CO)NC(=O)Cc2cccc(C)c2)c1` (stereo not drawn), the cytotoxicity at 70.5 h was -4.94%.
In the case of `COc1ccncc1NCc1cscn1`, the cytotoxicity at 70.5 h was -0.709%.
With `Cc1noc(C2CCCN(C(=O)c3cccc(Cl)c3)C2)n1` (stereo not drawn) the cytotoxicity at 70.5 h was -0.713%.
`O=c1cc(CN(CCO)C2CC2)nc2ccccn12` showed a cytotoxicity at 70.5 h of -3.82%.
With `COc1ccc(CNc2nc(C3CC3)no2)cc1OC` the cytotoxicity at 70.5 h was -1.13%.
Work on `CC(C)Cn1ccnc1CNC(=O)NC(C)(C)c1nccs1` yielded a cytotoxicity at 70.5 h of 19.7%.
Work on `Cc1ccccc1C(C)NC(=O)CN1CCN(Cc2ccc(Cl)s2)CC1` (stereo not drawn) yielded a cytotoxicity at 70.5 h of 17%.
`COc1ccccc1C(C)NC(=O)N1CCN(Cc2ccc(Br)s2)CC1` (stereo not drawn) gave a cytotoxicity at 70.5 h of 5.11%.
Compound `COc1cc(OC)cc(-c2noc(CN)n2)c1` has a cytotoxicity at 70.5 h of 45.5%.
Work on `Cc1cccc(NC(=O)CNC(=O)c2ccccc2F)c1` yielded a cytotoxicity at 70.5 h of 4.02%.
`CCOc1ccccc1NC(=O)NCc1ccoc1` gave a cytotoxicity at 70.5 h of -1.18%.
In the case of `CN(c1ncccc1C#N)C1CCN(CCc2ccccn2)CC1`, the cytotoxicity at 70.5 h was 13.7%.
Compound `CNS(=O)(=O)c1cccc(S(=O)(=O)Nc2ncc(C)s2)c1` has a cytotoxicity at 70.5 h of 3.06%.
`NC(=O)CS(=O)(=O)Cc1ccc(OCc2ccc(F)cc2)cc1` gave a cytotoxicity at 70.5 h of -2.96%.
With `CS(=O)(=O)Cc1ccc(OCc2ccc(F)cc2)cc1` the cytotoxicity at 70.5 h was 19.8%.
In the case of `Cc1ccc(CC(=O)NCC(O)c2cccc(C(F)(F)F)c2)cn1` (stereo not drawn), the cytotoxicity at 70.5 h was -0.0497%.
For `O=C(CC1CCCCC1)N1CCC(O)(C(F)(F)F)C1` (stereo not drawn), the cytotoxicity at 70.5 h was 1.99%.
`CN(C)Cc1ccc(C(N)=O)cc1NC(=O)c1cccc(C#N)c1` gave a cytotoxicity at 70.5 h of -4.53%.
In the case of `CN(C)C(=O)Cc1ccc(NCc2nccn2C)cc1`, the cytotoxicity at 70.5 h was -2.12%.
With `O=C(NCc1cc(F)ccc1F)Nc1ccn(CC(F)F)n1` the cytotoxicity at 70.5 h was 0.0811%.
`CCCn1cnc(S(=O)(=O)Nc2cccnc2-n2cccn2)c1` showed a cytotoxicity at 70.5 h of 19.8%.
Compound `COCCC(=O)N1CCC(NC(=O)c2cscc2C)CC1` has a cytotoxicity at 70.5 h of 6.09%.
`COCC(O)CN1CCC(NC(=O)c2cscc2C)CC1` (stereo not drawn) gave a cytotoxicity at 70.5 h of 3.56%.
Work on `CCOc1ccc(NC(=O)c2cc(C)c(C)o2)cc1CO` yielded a cytotoxicity at 70.5 h of 26.7%.
`O=C(NCc1cccnc1)Nc1ccn(CC(F)F)n1` gave a cytotoxicity at 70.5 h of -3.22%.
`N#CCCN(Cc1ccco1)C(=O)COC1CCCCC1` gave a cytotoxicity at 70.5 h of 21.5%.
Compound `O=C1C(Sc2cnn[nH]2)CCCN1c1ccccc1F` (stereo not drawn) has a cytotoxicity at 70.5 h of 19%.
Compound `O=C(NCc1cc(-c2ccccc2)no1)NCC1CCCO1` (stereo not drawn) has a cytotoxicity at 70.5 h of -0.266%.
`O=S(=O)(Cc1cc(-c2ccccc2)no1)CC1CCCO1` (stereo not drawn) showed a cytotoxicity at 70.5 h of -8.25%.
Work on `CCCN(Cc1cnn(C)c1)S(=O)(=O)c1ccc(F)c(C#N)c1` yielded a cytotoxicity at 70.5 h of -7.37%.
Work on `COCC(=O)N1CCN(Cn2nc(C)c(Br)c2C)CC1` yielded a cytotoxicity at 70.5 h of -2.69%.
In the case of `CC(C)CN(CC(O)c1ccccc1)C(=O)Nc1nccs1` (stereo not drawn), the cytotoxicity at 70.5 h was -6.61%.
In the case of `CCCN(Cc1cnn(C)c1)S(=O)(=O)c1cc(C)cc(F)c1`, the cytotoxicity at 70.5 h was 23.3%.
`CCOc1cccc(NC(=O)c2cc(C)on2)n1` showed a cytotoxicity at 70.5 h of -5.47%.
Work on `Cc1cc(CSCc2csc(CS(C)(=O)=O)n2)no1` yielded a cytotoxicity at 70.5 h of 2%.
